Results published in ChEMBL document CHEMBL1153899, “Discovery of benzothiazole derivatives as efficacious and enterocyte-specific MTP inhibitors” (Bioorg Med Chem Lett, 2009).
Active and inactive are the calls of the source. The calls are words filed in the database; no cut-off is given here.

Legend:
Mus musculus [1] = assay: Increase in peptide YY level in 3-day high fat diet fed C57BL/6 mouse at 10 mg/kg, po daily for 3 days; assay type: functional, organism-based; design: dose 10 mg/kg
Mus musculus [2] = assay: Decrease in plasma triglyceride level in […] C57BL/6 mouse at 10 mg/kg, po daily for 3 days measured after 6 hrs; assay type: functional
HepG2 = assay: Inhibition of apoB secretion in human HepG2 cells after 40 hrs by ELISA; assay type: functional, cell-based; settings: HepG2, 40 h
[3] = Inhibition of MTP from dog liver microsomes by scintillation counting; design: species or system Canis lupus familiaris, Microsome
Mus musculus [4] = assay: Decrease in total food intake in 3-day high fat diet fed C57BL/6 mouse at 10 mg/kg, po daily for 3 days; assay type: functional
Mus musculus [5] = assay: Decrease in body weight in […] at 10 mg/kg, po daily for 3 days; assay type: functional, C57BL/6

## CN(Cc1ccc(F)cc1)C(=O)[C@@H](NC(=O)c1nc2ccc(NC(=O)c3ccccc3-c3cn4ccccc4n3)cc2s1)c1ccccc1
Mus musculus [1]
  Activity: inactive
Mus musculus [2]
  Activity: inactive
HepG2
  IC50: 4.2 nM
[3]
  IC50: 13 nM
Mus musculus [4]
  Activity: inactive
Mus musculus [5]
  Activity: inactive
